We go through 14 compounds from patent US8048862B2, “Macrocyclic inhibitors of hepatitis C virus replication” (priority 2008, dated 2011).

The target in one assay is NS3/NS4 complexes (Hepatitis C virus genotype 1a, UniProt P27958). In words: NS3/NS4 inhibition activity (IC50). It is filed as biochemical. The method in brief:
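NS3/NS4 complexes were formed and compound inhibitory concentrations determined at ambient temperature (23 °C). The buffer contained 50 mM Tris-HCl pH 7.5, 15% glycerol, 0.6 mM LDAO, 25 μM NS4A peptide and 10 mM DTT.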

The test system of another assay is hepatitis C replicon. In words: hepatitis C replicon EC50. The class given is cell-based. The note with it: Hepatitis C virus; Table 3; hepatitis C replicon; read-out: EC50. The text has this: NS3-NS4 inhibition activity can be determined using known assay methods.

Read-outs that look alike come from different tables or passages of the source. Where only a bound is given, the exact number is not on record here.

NS3/NS4 complexes, sequence (P27958 1027-1657): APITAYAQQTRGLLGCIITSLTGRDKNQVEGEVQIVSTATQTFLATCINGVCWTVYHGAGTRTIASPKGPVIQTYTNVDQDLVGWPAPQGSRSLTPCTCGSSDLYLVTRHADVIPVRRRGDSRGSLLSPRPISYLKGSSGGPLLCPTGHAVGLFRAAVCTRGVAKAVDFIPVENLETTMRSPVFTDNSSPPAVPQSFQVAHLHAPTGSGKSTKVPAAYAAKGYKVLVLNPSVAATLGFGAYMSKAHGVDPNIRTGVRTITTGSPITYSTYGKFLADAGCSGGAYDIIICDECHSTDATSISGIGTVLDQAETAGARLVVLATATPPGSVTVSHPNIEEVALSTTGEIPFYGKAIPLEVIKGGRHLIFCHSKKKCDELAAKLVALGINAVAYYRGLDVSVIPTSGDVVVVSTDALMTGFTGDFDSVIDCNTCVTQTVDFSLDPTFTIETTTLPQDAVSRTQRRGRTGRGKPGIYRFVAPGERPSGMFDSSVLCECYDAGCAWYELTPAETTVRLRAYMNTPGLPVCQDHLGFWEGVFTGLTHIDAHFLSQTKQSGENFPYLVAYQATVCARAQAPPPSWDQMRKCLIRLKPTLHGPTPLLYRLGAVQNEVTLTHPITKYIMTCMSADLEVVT
NS3/NS4 complexes, sequence (P27958 1658-1711): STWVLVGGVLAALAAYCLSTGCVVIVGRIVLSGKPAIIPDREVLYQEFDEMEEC

In general, IC50 refers to the concentration needed to halve the response being measured. By EC50 is commonly meant the concentration at which the effect is half-maximal. Regarding `CC(C)n1c(O[C@@H]2C[C@H]3C(=O)N[C@]4(C(=O)NS(=O)(=O)N(C)C)C[C@H]4/C=C\CCCCC[C@H](NC(=O)OC(C)(C)C)C(=O)N3C2)nc2ccccc21` [Compound 1131], the IC50 on NS3/NS4 complexes (Table 3, read-out: IC50) is less than 10 nM. For the same compound, the EC50 with hepatitis C replicon is less than 10 nM.

As to `CCn1c(O[C@@H]2C[C@H]3C(=O)N[C@]4(C(=O)NS(=O)(=O)N(C)C)C[C@H]4/C=C\CCCCC[C@H](NC(=O)OC(C)(C)C)C(=O)N3C2)nc2ccccc21` [Compound 1132], on NS3/NS4 complexes (Table 3, read-out: IC50), the IC50 was less than 10 nM. Besides, the EC50 with hepatitis C replicon is less than 10 nM.

For `CC(C)n1c(O[C@@H]2C[C@H]3C(=O)N[C@]4(C(=O)NS(=O)(=O)N(C)C)C[C@H]4/C=C\CCCCC[C@H](NC(=O)OC(C)(C)C)C(=O)N3C2)nc2cc(F)ccc21` [Compound 1133], the IC50 on NS3/NS4 complexes (Table 3, read-out: IC50) was less than 10 nM. In addition, the EC50 with hepatitis C replicon was less than 10 nM.

Take `CC(C)n1c(O[C@@H]2C[C@H]3C(=O)N[C@]4(C(=O)NS(=O)(=O)N(C)C)C[C@H]4/C=C\CCCCC[C@H](NC(=O)OC(C)(C)C)C(=O)N3C2)nc2cccc(F)c21` [Compound 1134]: the half-maximal inhibitory concentration (IC50) on NS3/NS4 complexes (Table 3, read-out: IC50) was less than 10 nM. Further, the EC50 in the assay on hepatitis C replicon was less than 10 nM.

Turning to `CC(C)n1c(O[C@@H]2C[C@H]3C(=O)N[C@]4(C(=O)NS(=O)(=O)N(C)C)C[C@H]4/C=C\CCCCC[C@H](NC(=O)OC(C)(C)C)C(=O)N3C2)nc2c(F)cccc21` [Compound 1135], the IC50 on NS3/NS4 complexes (Table 3, read-out: IC50) was less than 10 nM. Further, in the assay on hepatitis C replicon, the EC50 was less than 10 nM.

Consider `CC(C)n1c(O[C@@H]2C[C@H]3C(=O)N[C@]4(C(=O)NS(=O)(=O)N(C)C)C[C@H]4/C=C\CCCCC[C@H](NC(=O)OC(C)(C)C)C(=O)N3C2)nc2ccc(F)cc21` [Compound 1136], for which the IC50 on NS3/NS4 complexes (Table 3, read-out: IC50) was less than 10 nM. In addition, the concentration giving a half-maximal response (EC50) with hepatitis C replicon was less than 10 nM.

For the compound `Cc1ccc2c(c1)nc(O[C@@H]1C[C@H]3C(=O)N[C@]4(C(=O)NS(=O)(=O)N(C)C)C[C@H]4/C=C\CCCCC[C@H](NC(=O)OC(C)(C)C)C(=O)N3C1)n2C(C)C` [Compound 1137], at NS3/NS4 complexes (Table 3, read-out: IC50), the IC50 is less than 10 nM. In the assay with hepatitis C replicon, the EC50 was less than 10 nM.

For `Cc1cccc2nc(O[C@@H]3C[C@H]4C(=O)N[C@]5(C(=O)NS(=O)(=O)N(C)C)C[C@H]5/C=C\CCCCC[C@H](NC(=O)OC(C)(C)C)C(=O)N4C3)n(C(C)C)c12` [Compound 1138], the IC50 on NS3/NS4 complexes (Table 3, read-out: IC50) was less than 10 nM. Besides, the EC50 with hepatitis C replicon was less than 10 nM.

With `Cc1ccc2nc(O[C@@H]3C[C@H]4C(=O)N[C@]5(C(=O)NS(=O)(=O)N(C)C)C[C@H]5/C=C\CCCCC[C@H](NC(=O)OC(C)(C)C)C(=O)N4C3)n(C(C)C)c2c1` [Compound 1139], on NS3/NS4 complexes (Table 3, read-out: IC50), the IC50 is less than 10 nM. In the assay with hepatitis C replicon, the EC50 is less than 10 nM.

Turning to `Cc1cccc2c1nc(O[C@@H]1C[C@H]3C(=O)N[C@]4(C(=O)NS(=O)(=O)N(C)C)C[C@H]4/C=C\CCCCC[C@H](NC(=O)OC(C)(C)C)C(=O)N3C1)n2C(C)C` [Compound 1140], the IC50 on NS3/NS4 complexes (Table 3, read-out: IC50) was less than 10 nM. Further, the concentration giving a half-maximal response (EC50) in the assay with hepatitis C replicon was less than 10 nM.

Regarding `CN(C)S(=O)(=O)NC(=O)[C@@]12C[C@H]1/C=C\CCCCC[C@H](NC(=O)OC(C)(C)C)C(=O)N1C[C@H](Oc3nc4ccccc4n3C3CCCC3)C[C@H]1C(=O)N2` [Compound 1141], the IC50 at NS3/NS4 complexes (Table 3, read-out: IC50) is less than 10 nM. Moreover, the EC50 with hepatitis C replicon is less than 10 nM.

In the case of `CC(C)n1c(O[C@@H]2C[C@H]3C(=O)N[C@]4(C(=O)NS(=O)(=O)C5CC5)C[C@H]4/C=C\CCCCC[C@H](NC(=O)OC(C)(C)C)C(=O)N3C2)nc2ccccc21` [Compound 1142], the IC50 on NS3/NS4 complexes (Table 3, read-out: IC50) was less than 10 nM. Further, the EC50 with hepatitis C replicon was less than 10 nM.

Turning to `CN(C)S(=O)(=O)NC(=O)[C@@]12C[C@H]1/C=C\CCCCC[C@H](NC(=O)OC(C)(C)C)C(=O)N1C[C@H](Oc3nc4ccccc4n3COCC[Si](C)(C)C)C[C@H]1C(=O)N2` [Compound 1143], at NS3/NS4 complexes (IC50, Table 3), the IC50 is less than 10 nM. In addition, the EC50 with hepatitis C replicon was more than 100 nM.

For `CN(C)S(=O)(=O)NC(=O)[C@@]12C[C@H]1/C=C\CCCCC[C@H](NC(=O)OC(C)(C)C)C(=O)N1C[C@H](Oc3nc4ccccc4[nH]3)C[C@H]1C(=O)N2` [Compound 1144], the IC50 at NS3/NS4 complexes (Table 3, read-out: IC50) was less than 10 nM. Moreover, the 50% effective concentration (EC50) with hepatitis C replicon was more than 100 nM.
